US8076341B2, “Compounds and use thereof” (Vironova AB, priority 2007, dated 2011)

How the values were obtained:
[1] = test system: human cytomegalovirus (HCMV) strain AD169 and TB 40; type: cell-based; settings: human lung fibroblasts, IE staining
HCMV = test: Test of inhibition of HCMV assembly and egress (modified plaque assay, 3 and 5 dpi); type: cell-based, human cytomegalovirus; settings: left until 7 dpi, infected human lung fibroblast cells, IE staining; for Inhibition 3 dpi (%): agent added 3 dpi; for Inhibition 5 dpi (%): agent added 5 dpi
[2] = test system: infected and uninfected human lung fibroblasts; test: Toxicity by propidium iodide staining of cell cultures; type: cell-based; settings: method and source not stated
Description: The concentrations of compounds used in the viral experiments were at the μM level. Cellular toxicity for B-220 has been shown for concentrations above 100 μM.

| SMILES | Inhibitory effect (%) as % inhibition of infection [1] | Inhibition 3 dpi (%) (HCMV) | Inhibition 5 dpi (%) (HCMV) | concentrations at which cellular toxicity has been shown [2] |
| --- | --- | --- | --- | --- |
| O=C(O)P(=O)(O)O [Foscavir] | 20-50% | 85-100% | 65-85% |  |
| Cc1oncc1C(=O)Nc1ccc(C(F)(F)F)cc1 [Leflunomide] | 25-50% | 65-80% | 80-90% |  |
| Cc1cc2nc3c4ccccc4n(CCN(C)C)c3nc2cc1C [B-220, 2,3-dimethyl-6-(N,N-dimethylaminoethyl)-6H-indolo(2,3-b)quinoxaline] | 20% | 65-85% | 65-80% | above 100 μM |
| Nc1nc(O)c2ncn(COC(CO)CO)c2n1 [Ganciclovir] | 20-30% | 100% | 80-95% |  |
